Test results as given in US20090198145A1, “COMPOSITIONS, METHODS, AND SYSTEMS FOR RAPID INDUCTION AND MAINTENANCE OF […] SLEEP” (priority 2008, published 2009).

Tests used:
[1] = test system: rats; settings: intravenous, over a 6 hour period; cited from earlier work
[2] = test system: patient with chronic depression and post-traumatic stress disorder
[3] = test system: surgical patients; settings: over 80 patients; GABA-A agonist (e.g., propofol) and adjunctive medications
Description: This invention describes the discoveries that control, monitor, and administer the hypnotic or sedative agent such as a GABA-A agonist (e.g., propofol) and adjunctive medications at designed dosages, timing, and modes of administration to produce dreams and an unique sleep state of un-fragmented Continuous REM Sleep.

[4] = Patient A, same regimen, follow-up

For `CC(C)c1cccc(C(C)C)c1O` [propofol, 2-6 diisopropylphenol], the “replication of natural sleep cycle” value [1] is listed as “replicate a natural sleep cycle”, the “patient-reported sleep recovery after the procedure” value ([2]; Patient A, same regimen, Continuous REM Sleep of approximately 1 hour) is listed as “felt extremely rested” and the “duration of improved ease of sleeping post-operatively” value [2, 4] is listed as “three”. The nightmares on follow-up [2, 4] was “lack of nightmares”, the “dreaming reported during the procedure” value ([2]; human, in vivo) was “profuse dreaming about gardening” and the “achievement of Continuous REM Sleep” value [3] was “achieved Continuous REM Sleep”.
